≈ marks a conversion by molar mass, not a printed value. Read-outs that look alike come from different tables or passages of the source.
Columns and labels:
Format in all cases: cell-based
S. aureus CJ247 = test: MIC, agar diffusion, S. aureus CJ247; conditions: Staphylococcus aureus, read-out: in vitro activities MIC
From the text: (§1) In vitro investigations have shown a relatively high potency of compounds of the invention against all bacteria including gram-positive and gram-negative strains (Staphylococci, Streptococci, Corynebacteriae, Mycobacteriae, Proteus, Propionibacterium, Pseudomonas, Neisseriae, E. coli) and fungal strains (Candida and Aspergillus). […] In addition, the studies of post-antibiotic effects point towards a strong bactericidal effect of the compounds of the invention. […] The potency of new polyaminated fusidic acid analogues is estimated by comparing the inhibition of growth of different microorganisms produced by known concentrations of the analogue to be examined and a reference compound such as fusidic acid. The microbiological assay set up is in agreement with the European Pharmacopoeia 3rd edition (1997). It is an agar diffusion method where the same volume of the tested solution is added to cavities in agar. The inhibition zones are function of the concentration of the fusidic acid analogue used. All assays are run with fusidic acid as reference substance.

S. aureus CJ200 = test: MIC, agar diffusion, S. aureus CJ200; conditions: Staphylococcus aureus, read-out: in vitro activities MIC
From the text: as §1

S. aureus CJ234R = test: MIC, agar diffusion, S. aureus CJ234R; conditions: Staphylococcus aureus, read-out: in vitro activities MIC
From the text: as §1

S. aureus CJ234F = test: MIC, agar diffusion, S. aureus CJ234F; conditions: Staphylococcus aureus; S. aureus CJ234F (MRSA, Fus. resistant); read-out: in vitro activities MIC
From the text: as §1

S. aureus N6 = test: MIC, agar diffusion, S. aureus N6; conditions: Staphylococcus aureus; S. aureus N6 (Fus. resistant); read-out: in vitro activities MIC
From the text: as §1

S. epidermis CK5 = test: MIC, agar diffusion, S. epidermis CK5; conditions: Staphylococcus epidermidis, read-out: in vitro activities MIC
From the text: as §1

[1] = system: Propionibacterium acnes FN33; test: MIC, agar diffusion, Propionibacterium acnes FN33; conditions: Cutibacterium acnes, read-out: in vitro activities MIC
From the text: as §1

[2] = system: Corynebacterium xerosis FF; test: MIC, agar diffusion, Corynebacterium xerosis FF; conditions: read-out: in vitro activities MIC
From the text: as §1

[3] = system: Streptococcus pyogenes EC88; test: MIC, agar diffusion, Streptococcus pyogenes EC88; conditions: read-out: in vitro activities MIC
From the text: as §1

E. coli HA165 = test: MIC, agar diffusion, E. coli HA165; conditions: Escherichia coli, read-out: in vitro activities MIC
From the text: as §1

[4] = system: Pseudomonas aeruginosa BA17; test: MIC, agar diffusion, Pseudomonas aeruginosa BA17; conditions: read-out: in vitro activities MIC
From the text: as §1

[5] = system: Saccaromyces cervisiae ZZ7; test: MIC, agar diffusion, Saccaromyces cervisiae ZZ7; conditions: Saccharomyces cerevisiae, read-out: in vitro activities MIC
From the text: as §1

Candida albicans ZA = test: MIC, agar diffusion, Candida albicans ZA; conditions: read-out: in vitro activities MIC
From the text: as §1

Asbergillus niger ZM35 = test: MIC, agar diffusion, Asbergillus niger ZM35; conditions: Aspergillus niger, read-out: in vitro activities MIC
From the text: as §1

[6] = system: Streptococcus faecium EI19; test: MIC, agar diffusion, Streptococcus faecium EI19; conditions: Enterococcus faecium; Streptococcus faecium EI19 (Penicillin resistant); read-out: in vitro activities MIC
From the text: as §1

Work on CC(=O)O[C@H]1C[C@@]2(C)C(C[C@@H](O)C3[C@@]4(C)CC[C@@H](OC(C)=O)[C@@H](C)C4CC[C@@]32C)[C@@H]1[C@H](CCCC(C)C)C(=O)NCCCNCCCCNCCCN (stereo partly drawn) [Compound 173, 21-N-[3′-({4′-[(3′-aminopropyl)amino]butyl}amino)propyl]-3-OAc-17R,20S,24,25-tetrahydrofusid-21-amide] yielded an MIC (S. aureus CJ247) of 4 µg/mL (≈ 5.35 µM), an MIC (S. aureus CJ200) of 4 µg/mL (≈ 5.35 µM) and an MIC (S. aureus CJ234R; MRSA) of 1 µg/mL (≈ 1.34 µM). For the same compound, the MIC (S. aureus CJ234F) was 4 µg/mL (≈ 5.35 µM), the MIC (S. aureus N6) was 4 µg/mL (≈ 5.35 µM) and the MIC (S. epidermis CK5) was 1 µg/mL (≈ 1.34 µM). It also gave an MIC [1] of 4 µg/mL (≈ 5.35 µM), an MIC [2] of 4 µg/mL (≈ 5.35 µM) and an MIC [3] of 4 µg/mL (≈ 5.35 µM). It also gave an MIC (E. coli HA165) of 4 µg/mL (≈ 5.35 µM), an MIC [4] of 4 µg/mL (≈ 5.35 µM) and an MIC [5] of 4 µg/mL (≈ 5.35 µM). The MIC (Candida albicans ZA) was 125 µg/mL (≈ 167 µM) and the MIC (Asbergillus niger ZM35) was 125 µg/mL (≈ 167 µM).

CC(C)CCCC(C(=O)NCCNCCCNCCN)[C@H]1CC[C@@]2(C)C1CCC1[C@@]3(C)CC[C@@H](O)[C@@H](C)C3CC[C@@]12C (stereo partly shown) [Compound 152, 21-N-[2′-({3′-[(2′-aminoethyl)amino]propyl}amino)ethyl]-11-desoxy-16-desacetoxy-17S,20,24,25-tetrahydrofusid-21-amide] showed an MIC (S. aureus CJ247) of 4 µg/mL (≈ 6.79 µM), an MIC (S. aureus CJ200) of 4 µg/mL (≈ 6.79 µM) and an MIC (S. aureus CJ234F) of 4 µg/mL (≈ 6.79 µM). It also gave an MIC (S. aureus N6) of 4 µg/mL (≈ 6.79 µM), an MIC (S. epidermis CK5) of 2 µg/mL (≈ 3.4 µM) and an MIC [2] of 1 µg/mL (≈ 1.7 µM). The MIC (E. coli HA165) was 4 µg/mL (≈ 6.79 µM), the MIC [4] was 8 µg/mL (≈ 13.6 µM) and the MIC [5] was > 125 µg/mL. For the same compound, the MIC (Candida albicans ZA) was > 125 µg/mL and the MIC (Asbergillus niger ZM35) was > 125 µg/mL.

CC(=O)O[C@H]1C[C@@]2(C)C(C[C@@H](O)C3[C@@]4(C)CC[C@@H](O)[C@@H](C)C4CC[C@@]32C)[C@@H]1[C@H](CCCC(C)C)C(=O)NCCCNCCCCNCCCN (stereo partly drawn) [Compound 125, 21-N-[3′-({4′-[(3′-aminopropyl)amino]butyl}amino)propyl]-17R,20S,24,25-tetrahydrofusid-21-amide] was tested, and the MIC (S. aureus CJ247) was 1 µg/mL (≈ 1.42 µM), the MIC (S. aureus CJ200) was 1 µg/mL (≈ 1.42 µM) and the MIC (S. aureus CJ234F) was 1 µg/mL (≈ 1.42 µM). It also gave an MIC (S. aureus N6) of 1 µg/mL (≈ 1.42 µM), an MIC (S. epidermis CK5) of 1 µg/mL (≈ 1.42 µM) and an MIC [1] of 1 µg/mL (≈ 1.42 µM). It also gave an MIC [2] of 1 µg/mL (≈ 1.42 µM), an MIC [3] of 4 µg/mL (≈ 5.67 µM) and an MIC [6] of 16 µg/mL (≈ 22.7 µM). It also gave an MIC (E. coli HA165) of 16 µg/mL (≈ 22.7 µM), an MIC [4] of 16 µg/mL (≈ 22.7 µM) and an MIC [5] of 16 µg/mL (≈ 22.7 µM). The MIC (Candida albicans ZA) was 16 µg/mL (≈ 22.7 µM) and the MIC (Asbergillus niger ZM35) was 16 µg/mL (≈ 22.7 µM).

Compound CC(C)CCCC(C(=O)NCCCNCCCCNCCCN)[C@@H]1CC[C@@]2(C)C1C[C@@H](O)C1[C@@]3(C)CC[C@@H](O)[C@@H](C)C3CC[C@@]12C (stereo partly drawn) [Compound 146, 21-N-{[3′-({4′-[(3′-aminopropyl)amino]butyl}amino)propyl]}-16-desacetoxy-17R,20S,24,25-tetrahydrofusid-21-amide] has an MIC (S. aureus CJ247) of 1 µg/mL (≈ 1.55 µM), an MIC (S. aureus CJ200) of 1 µg/mL (≈ 1.55 µM) and an MIC (S. aureus CJ234F) of 1 µg/mL (≈ 1.55 µM). For the same compound, the MIC (S. aureus N6) was 1 µg/mL (≈ 1.55 µM), the MIC (S. epidermis CK5) was 1 µg/mL (≈ 1.55 µM) and the MIC [1] was 1 µg/mL (≈ 1.55 µM). The MIC [2] was 1 µg/mL (≈ 1.55 µM), the MIC [3] was 1 µg/mL (≈ 1.55 µM) and the MIC [6] was 1 µg/mL (≈ 1.55 µM). For the same compound, the MIC (E. coli HA165) was 4 µg/mL (≈ 6.18 µM), the MIC [4] was 16 µg/mL (≈ 24.7 µM) and the MIC [5] was 4 µg/mL (≈ 6.18 µM). The MIC (Candida albicans ZA) was > 125 µg/mL and the MIC (Asbergillus niger ZM35) was > 125 µg/mL.

In the case of CC(=O)NC[C@H]1CN(c2ccc(N3CCOCC3)c(F)c2)C(=O)O1 [Linezolid, reference compound], the MIC (S. aureus CJ247) is reported as 1 µg/mL (≈ 2.96 µM), the MIC (S. aureus CJ200) is reported as 4 µg/mL (≈ 11.9 µM) and the MIC (S. aureus CJ234R; S. aureus CJ234R (MRSA, Rifampicin resistant)) is reported as 16 µg/mL (≈ 47.4 µM). The MIC (S. aureus CJ234F) was 1 µg/mL (≈ 2.96 µM), the MIC (S. epidermis CK5) was 0.25 µg/mL (≈ 0.741 µM) and the MIC [1] was 1 µg/mL (≈ 2.96 µM). It also gave an MIC [3] of 4 µg/mL (≈ 11.9 µM).

CC(=O)O[C@H]1C[C@@]2(C)C(C[C@@H](O)C3[C@@]4(C)CC[C@@H](O)[C@@H](C)C4CC[C@@]32C)[C@@H]1[C@H](CCCC(C)C)C(=O)NCCCCNCCCN (stereo partly drawn) [Compound 121, 21-N-{4′-[(3′-aminopropyl)amino]butyl}-17R,20S,24,25-tetrahydrofusid-21-amide] showed an MIC (S. aureus CJ247) of 4 µg/mL (≈ 6.17 µM), an MIC (S. aureus CJ200) of 4 µg/mL (≈ 6.17 µM) and an MIC (S. aureus CJ234F) of 4 µg/mL (≈ 6.17 µM). For the same compound, the MIC (S. aureus N6) was 16 µg/mL (≈ 24.7 µM), the MIC (S. epidermis CK5) was 4 µg/mL (≈ 6.17 µM) and the MIC [1] was 4 µg/mL (≈ 6.17 µM). For the same compound, the MIC [2] was 4 µg/mL (≈ 6.17 µM), the MIC [3] was 16 µg/mL (≈ 24.7 µM) and the MIC [6] was 16 µg/mL (≈ 24.7 µM). It also gave an MIC (E. coli HA165) of 16 µg/mL (≈ 24.7 µM), an MIC [5] of 16 µg/mL (≈ 24.7 µM) and an MIC (Candida albicans ZA) of 16 µg/mL (≈ 24.7 µM). It also gave an MIC (Asbergillus niger ZM35) of 64 µg/mL (≈ 98.8 µM).

Source: patent US20030087887A1, “Novel fusidic acid derivatives” (priority 2001, published 2003)
